The source of these data is US5798387A, “Amino acid derivatives” (Zaidan Hojin Biseibutsu Kagaku Kenkyu Kai, priority 1992, dated 1998).

Structures are written as SMILES. Where a SMILES comes first, the peptide text is derived from it. [ ]: non-standard residue; d: D form. αMeS = C[C](N)(CO)C(=O)O; hSer = N[CH](CCO)C(=O)O

One test concerns T cells. The test can be described thus: T cell proliferation (Test 1), thymidine uptake of Concanavalin A-treated T cells. It is filed as cell-based, rat (female Fisher 344). To be noted: Rattus norvegicus, 72 h, 3 days, untreated cells = 100, read-out: Rate of stimulating proliferation of T cells; for activity at 0.1 µg/mL: concentration of compound 0.1 μg/ml; for activity at 1 µg/mL: concentration of compound 1 μg/ml; for activity at 10 µg/mL: concentration of compound 10 μg/ml. An excerpt:
Effects of the novel amino acid derivatives of the general formula (I) on the proliferation of T cells were investigated by the following procedure.
The spleens, which had been excised in sterility from female Fisher 344 rats (12-16 weeks old, purchased from CHARLES RIVER JAPAN, INC), were squeezed in RPMI 1640 medium (a product of NISSUI PHARMACEUTICAL CO., LTD.) supplemented with 10% of fetal bovine serum, followed by passage of the resulting cell suspension through a column containing nylon wool fibres, whereby a cell suspension containing an abundant amount of T cells was obtained. This cell suspension was diluted to a level of 1×10^6 cells/ml with addition of a medium of the same composition as above. The cell-containing medium so obtained was then added with 5 μg/ml of Concanavalin A (product of Pharmacia AB), followed by incubation at 37° C. for 4 hours. Four hours later, α-methylmannoside was added to the incubated medium to give a concentration of 20 mg/ml of α-methylmannoside. After stirring the medium, cells were separated and collected therefrom by centrifugation. The collected cells were suspended at a level of 3×10^6 cells/ml in a medium of the same composition as above, followed by placing the resulting cell suspension in 100 μl portions in a 96-well microplate.
Novel amino acid derivatives at various concentrations, which are shown in Table 4, were incorporated in an amount of 100 μl as the test compounds to the respective cell suspensions in the plate, followed by incubation at 37° C. for 3 days in an incubator under air atmosphere containing 5% of carbon dioxide. Meanwhile, eighteen hours before the completion of the incubation, a solution of 10μ Ci/ml of radioactively labeled thymidine (Thymidine "6-^3 H", a product of NEN Company) was added in an amount of 10 μl to the cell suspensions under incubation. The cells after the incubation were collected on a filter paper by means of a cell harvester, washed with water and radioactivity of the cells so treated was determined by a liquid scintillation counter. The determined values of the radioactivity of the cells as treated with the test compounds were evaluated on the assumption that the determined value of the radioactivity of the cells untreated, namely tested without addition of the test compound during the incubation of cells was amounting to 100. The so evaluated values are recorded and expressed as rates (%) for stimulating the T cell proliferation which show such extent that the proliferation of T cells is enhanced by the new amino acid derivative of this invention.

Test [1] relates to bone-marrow cells (hematopoietic stem cells; megakaryocytes). Nature of the test: Formation of colonies of megakaryocytes from bone-marrow cells (Test 3). To be noted: Mus musculus, Bone marrow cell, 168 h, 7 days, no addition = 100, read-out: Number of colonies of megakaryocytes; for activity at 50 µg/mL: concentration of test compound 50 μg/ml; for activity at 5 µg/mL: concentration of test compound 5 μg/ml. It is filed as cell-based, mouse (male BALB/c). How it is done: The activity of some amino acid derivatives of the general formula (I) according to this invention which induces proliferation of hematopoietic stem cells was tested in the following manner. Thus, bone-marrow cells had been prepared from the femurs of male BALB/c mouse (6-7 weeks old), and then a suspension of the bone-marrow cells was overlayed on "Lympholite M" (product of Cefalane Company), followed by centrifugation under 1500 g for 20 minutes. A lymphocyte fraction was collected, washed three times with "alpha MEM medium" (product of Gibco Company), and then diluted and suspended in the same medium as above to give a lymphocyte concentration of 7×10^6 cells/ml.
[…] of the resulting cell suspension, 50 μl of a solution of a test compound in physiological saline, 50 μl of a culture supernatant of WEHI-3, 100 μl of phosphate-buffered physiological saline, 50 μl of a pre-deionized 10% bovine serum albumin solution, 50 μl of an L-asparagin solution (200 μg/ml), 50 μl of a calcium chloride solution (260 μg/ml) and 50 μl of bovine plasma containing sodium citrate were combined together. The liquid mixture so obtained was poured in portions of 50 μl/well on a slide glass ("Glass Ware", product of Flaw Laboratory Company). After coagulation of the mixture, the slide glass bearing the coagulated masses was immersed in 10% FBS-added alpha MEM medium, followed by incubation at 37° C. under 5% CO2 for 7 days.
After completion of the incubation, the cells on the slide glass were immobilized with a 25% glutaraldehyde solution. In accordance with the methods proposed by Nagasawa et al. ["Zoketsu Kan Saibo (Hematopoietic Stem Cells)" compiled by takahisa Shimamaro, page 128 (The Nishimura Shoten Co., Ltd.)], the immobilized cells were stained for acetylcholinesterase activity which is specific for mouse megakaryocytes, and also the cells were stained with Mayer hematoxylin. Each cell culture so stained was dried and then sealed with a sealing agent. Under a microscope of ×100 magnification, the number of megakaryocytic colonies (i.e., the number of cells stained in an orange color) per well was counted.

For test [2], the system named is Ehrlich ascites carcinoma. Nature of the test: Antitumor activity (Test 2), Ehrlich ascites carcinoma transplanted subcutaneously. It is filed as in vivo, mouse (ICR). To be noted: tumor weight on day 15 vs control. Here is the method:
The antitumor activity of some amino acid derivatives of the general formula (I) according to this invention was tested in the following manner. A suspension of Ehrlich ascites carcinoma cells was subcutaneously injected to one of the inguinal parts of each ICR mouse to transplant 4×10^6 cells/mouse. From the seventh day after the transplantation, a test compound was intraperitoneally injected daily for 7 days at a dose of 50, 5 or 0.5 mg/kg (4 mice per treated group of mice, but 8 mice per untreated control group of mice). On the fifteenth day after the transplantation, a solid cancer was cut out and weighed. A reduction in the weight of solid cancers of the mice in each treated group of mice which was evaluated in comparison with the control group is expressed as rate of inhibiting the tumor growth (%) in Table 5 below.

In the case of `CC(C)CC(NC(=O)C(O)C(C)C(C)O)C(=O)O` (stereo not drawn) [Compound 9], in the test on T cells, the activity at 0.1 µg/mL amounted to 175%, the activity at 1 µg/mL worked out at 157% and the activity at 10 µg/mL was determined as 196%. The activity at 50 µg/mL in test [1] is 145%.

Consider `CC(O)CCC(=O)NC(C)(CO)C(=O)O` (stereo not drawn) [Compound 3], for which, in the test on T cells, the activity at 0.1 µg/mL turned out to be 123%, the activity at 1 µg/mL came to 100% and the activity at 10 µg/mL was determined as 101%.

With `COC(=O)C(CSC)NC(=O)C(O)C(C)C(C)O` (stereo not drawn) [Compound 18], in the test with T cells, the activity at 0.1 µg/mL stood at 268%, the activity at 1 µg/mL came out at 355% and the activity at 10 µg/mL worked out at 427%. For the same molecule, in test [1], the activity at 5 µg/mL was 146%.

In the case of `CSCC(NC(=O)C(O)C(C)C(C)O)C(=O)OCc1ccccc1` (stereo not drawn) [Compound 19], in test [2] (5 mg/kg i.p. daily for 7 days), the “Tumor growth inhibiting rate” value came out at 12%. In addition, in the test with T cells, the activity at 0.1 µg/mL is 289%, the activity at 1 µg/mL was determined as 310% and the activity at 10 µg/mL amounted to 251%. In test [1], the activity at 50 µg/mL was 156%.

As for `CC(CO)(NC(=O)C(O)C(C)(C)CO)C(=O)O` (stereo not drawn) [Compound 13], in the test on T cells, the activity at 0.1 µg/mL is 405%, the activity at 1 µg/mL amounted to 352% and the activity at 10 µg/mL turned out to be 465%. Further, in test [1], the activity at 5 µg/mL is 177%.

Regarding `CC(O)CC(=O)NC(C)(CO)C(=O)O` (stereo not drawn) [Compound 5], in the test with T cells, the activity at 0.1 µg/mL is 313%, the activity at 1 µg/mL was determined as 370% and the activity at 10 µg/mL came to 439%. The activity at 50 µg/mL in test [1] is 178%.

For the molecule `CC(C)C(O)C(=O)NC(C)(CO)C(=O)OCc1ccccc1` (stereo not drawn) [Compound 8], in the test on T cells, the activity at 0.1 µg/mL turned out to be 251%, the activity at 1 µg/mL worked out at 226% and the activity at 10 µg/mL was 372%. Also, in test [1], the activity at 5 µg/mL was found to be 111%.

Regarding `CC(NC(=O)C(O)C(C)C(C)O)C(=O)OCc1ccccc1` (stereo not drawn) [Compound 22], the activity at 5 µg/mL in test [1] was determined as 108%.

As to `CC(O)C(C)C(O)C(=O)NC(C)(C)C(=O)OCc1ccccc1` (stereo not drawn) [Compound 25], in test [1], the activity at 50 µg/mL is 156%.

On to `CCCCOC(=O)C(C)(CO)NC(=O)CCC(C)O` (stereo not drawn) [Compound 4], for which, in the test on T cells, the activity at 0.1 µg/mL came to 133%, the activity at 1 µg/mL came to 135% and the activity at 10 µg/mL stood at 100%.

With `CC(O)CC(=O)NC(C)(COCc1ccccc1)C(=O)OCc1ccccc1` (stereo not drawn) [Compound 6], in the test with T cells, the activity at 0.1 µg/mL stood at 142%, the activity at 1 µg/mL amounted to 171% and the activity at 10 µg/mL was determined as 169%. The activity at 5 µg/mL in test [1] came out at 126%.

Turning to `CC(O)C(C)C(O)C(=O)NC(CSCc1ccccc1)C(=O)OCc1ccccc1` (stereo not drawn) [Compound 20], in the test with T cells, the activity at 0.1 µg/mL was determined as 153%, the activity at 1 µg/mL came to 227% and the activity at 10 µg/mL was determined as 261%. Moreover, the activity at 5 µg/mL in test [1] came out at 129%.

For the molecule `CC(O)C(C)C(O)C(=O)NC(C)(C)C(=O)O` (stereo not drawn) [Compound 26], the activity at 5 µg/mL in test [1] is 136%.

With `CC(C)C(O)C(C)C(O)C(=O)NC(C)(CO)C(=O)OCc1ccccc1` (stereo not drawn) [Compound 17], in the test on T cells, the activity at 0.1 µg/mL was 201%, the activity at 1 µg/mL was 273% and the activity at 10 µg/mL is 245%. Moreover, in test [1], the activity at 5 µg/mL was 107%.

Regarding `CC(CO)(NC(=O)C(O)C(C)(C)CO)C(=O)OCc1ccccc1` (stereo not drawn) [Compound 15], in the test on T cells, the activity at 0.1 µg/mL came to 350%, the activity at 1 µg/mL worked out at 349% and the activity at 10 µg/mL was determined as 442%. The activity at 50 µg/mL in test [1] turned out to be 135%.

Regarding `COC(=O)C(C)(CO)NC(=O)C(O)C(C)(C)CO` (stereo not drawn) [Compound 14], in the test on T cells, the activity at 0.1 µg/mL was determined as 356%, the activity at 1 µg/mL came to 335% and the activity at 10 µg/mL was 443%. Moreover, the activity at 5 µg/mL in test [1] came out at 167%.

Take `CC(O)C(C)C(O)C(=O)NC(CO)C(=O)OCc1ccccc1` (stereo not drawn) [Compound 12]: in test [2] (0.5 mg/kg i.p. daily for 7 days), the “Tumor growth inhibiting rate” value is listed as 37%. In addition, in the test on T cells, the activity at 0.1 µg/mL stood at 265%, the activity at 1 µg/mL came to 185% and the activity at 10 µg/mL was found to be 242%. In addition, the activity at 5 µg/mL in test [1] stood at 105%.

For `CC(CO)(NC(=O)C(N)CCO)C(=O)O` (stereo not drawn) [Compound 27] (H-[hSer]-[αMeS]-OH; configuration not given here), in test [1], the activity at 50 µg/mL is 143%.

As for `CC(C)C(O)C(C)C(O)C(=O)NC(C)(CO)C(=O)O` (stereo not drawn) [Compound 16], in the test with T cells, the activity at 0.1 µg/mL stood at 200%, the activity at 1 µg/mL worked out at 239% and the activity at 10 µg/mL is 201%. The activity at 50 µg/mL in test [1] is 143%.

In the case of `CCC(C)CC(=O)NC(C)(CO)C(=O)OCc1ccccc1` (stereo not drawn) [Compound 2], in the test on T cells, the activity at 0.1 µg/mL was determined as 208%, the activity at 1 µg/mL worked out at 190% and the activity at 10 µg/mL is 275%. In test [1], the activity at 5 µg/mL was found to be 122%.

As to `CC(C)C(O)C(=O)NC(C)(CO)C(=O)O` (stereo not drawn) [Compound 7], in the test with T cells, the activity at 0.1 µg/mL worked out at 240%, the activity at 1 µg/mL was 222% and the activity at 10 µg/mL stood at 323%. Moreover, in test [1], the activity at 50 µg/mL turned out to be 166%.

For `CC(CC(=O)O)NC(=O)C(O)C(C)C(C)O` (stereo not drawn) [Compound 29], in test [1], the activity at 50 µg/mL came to 121%.

For the molecule `CC(O)C(NC(=O)C(O)C(C)C(C)O)C(=O)O` (stereo not drawn) [Compound 23], in test [1], the activity at 5 µg/mL was 144%.

As to `CC(CC(=O)OCc1ccccc1)NC(=O)C(O)C(C)C(C)O` (stereo not drawn) [Compound 28], the activity at 5 µg/mL in test [1] was determined as 121%.

In the case of `CCC(C)CC(=O)NC(C)(CO)C(=O)O` (stereo not drawn) [Compound 1], in the test with T cells, the activity at 0.1 µg/mL was determined as 292%, the activity at 1 µg/mL was determined as 297% and the activity at 10 µg/mL was determined as 332%. Also, the activity at 5 µg/mL in test [1] turned out to be 147%.

Consider `CC(O)C(C)C(O)C(=O)NC(CO)C(=O)O` (stereo not drawn) [Compound 11], for which, in the test with T cells, the activity at 0.1 µg/mL turned out to be 394%, the activity at 1 µg/mL worked out at 392% and the activity at 10 µg/mL is 100%. Further, the activity at 5 µg/mL in test [1] was 150%.

With `CC(NC(=O)C(O)C(C)C(C)O)C(=O)O` (stereo not drawn) [Compound 24], the activity at 5 µg/mL in test [1] is 136%.
